Tests used:
hGAT2 = biological target: T1, hGAT2 (Homo sapiens, UniProt Q9NSD5); assay: hGAT2 competition uptake assay with 3H-GABA in HEK-TREx-hGAT2 cells; type: cell-based
T1 construct: expressed in transfected cells; host or cells: HEK-TREx cells (HEK-TREx-GAT2 inducible cell line)
T1 sequence (Q9NSD5 1-602): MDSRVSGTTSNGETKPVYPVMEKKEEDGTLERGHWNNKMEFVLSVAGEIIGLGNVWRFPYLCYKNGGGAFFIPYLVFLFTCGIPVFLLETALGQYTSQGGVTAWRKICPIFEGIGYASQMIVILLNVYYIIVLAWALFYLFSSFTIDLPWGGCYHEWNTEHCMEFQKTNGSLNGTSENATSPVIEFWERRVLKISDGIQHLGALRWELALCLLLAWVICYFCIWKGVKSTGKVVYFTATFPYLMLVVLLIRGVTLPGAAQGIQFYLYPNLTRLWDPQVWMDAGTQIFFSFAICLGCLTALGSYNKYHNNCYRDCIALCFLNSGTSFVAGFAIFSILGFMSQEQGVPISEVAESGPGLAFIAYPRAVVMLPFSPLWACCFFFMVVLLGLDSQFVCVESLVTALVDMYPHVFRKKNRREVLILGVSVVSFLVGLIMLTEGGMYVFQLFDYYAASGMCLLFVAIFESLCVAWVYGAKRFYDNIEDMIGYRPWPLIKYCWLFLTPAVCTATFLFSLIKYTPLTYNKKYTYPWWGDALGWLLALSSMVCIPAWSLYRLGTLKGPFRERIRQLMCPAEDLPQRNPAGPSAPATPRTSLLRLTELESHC
Description: A modified competition uptake assay can be developed to determine the ability of a test compound(s) to inhibit the uptake of radiolabeled substrates into HEK-TREx-hGAT2 cells induced to over-express hGAT2. The results can be stated as affinities (IC50).
The competition uptake assay is prepared as follows: Compounds are prepared for assay by diluting a 100 mM stock concentration (in DMSO) to the appropriate working concentration. Typically, seven-point dose response curves are prepared starting at a final assay concentration of 1 mM and carrying out three-fold dilutions. […]
Scintillation fluid (200 μl) (Optiphase Supermix (Perkin Elmer) is added to each well, and the plate is covered with a 96-well adhesive plate cover and placed on a shaker for 10 minutes. The plates are counted on a 96-well plate scintillation counter for 60 sec/well. The data are analyzed using a sigmoidal dose response curve-fitting program (Prism, GraphPad, Inc, San Diego, Calif.; equation: one-site competition).
FIG. 2 depicts the results of a competition experiment using HEK-TREx-GAT2 cells. ^3H-GABA was used as the substrate and unlabeled GABA was used as the competitor. […] Non-specific uptake was determined by measuring the uptake into cells not induced to express the transporter (“no tet”). […]

PgP = biological target: T2, PgP (Homo sapiens, UniProt P08183); assay: Transwell monolayer efflux assay in MDCK cells with TREx-PgP; type: cell-based; conditions: 2.5 nM 3H-vinblastine, 250 μM verapamil
T2 construct: expressed in transfected cells; host or cells: MDCK cells
Description: Transwell monolayer efflux assays can be performed by transfecting MDCK cells with the tetracycline-inducible TREx-PgP expression vector. The cells optionally can be transfected with a nucleic acid encoding the transporter of interest. The transfected cells are seeded on polycarbonate filter membranes in transwell dishes and grown for 3-5 days, yielding a polarized monolayer with tight junctions between cells.

T2 sequence (P08183 whole entry): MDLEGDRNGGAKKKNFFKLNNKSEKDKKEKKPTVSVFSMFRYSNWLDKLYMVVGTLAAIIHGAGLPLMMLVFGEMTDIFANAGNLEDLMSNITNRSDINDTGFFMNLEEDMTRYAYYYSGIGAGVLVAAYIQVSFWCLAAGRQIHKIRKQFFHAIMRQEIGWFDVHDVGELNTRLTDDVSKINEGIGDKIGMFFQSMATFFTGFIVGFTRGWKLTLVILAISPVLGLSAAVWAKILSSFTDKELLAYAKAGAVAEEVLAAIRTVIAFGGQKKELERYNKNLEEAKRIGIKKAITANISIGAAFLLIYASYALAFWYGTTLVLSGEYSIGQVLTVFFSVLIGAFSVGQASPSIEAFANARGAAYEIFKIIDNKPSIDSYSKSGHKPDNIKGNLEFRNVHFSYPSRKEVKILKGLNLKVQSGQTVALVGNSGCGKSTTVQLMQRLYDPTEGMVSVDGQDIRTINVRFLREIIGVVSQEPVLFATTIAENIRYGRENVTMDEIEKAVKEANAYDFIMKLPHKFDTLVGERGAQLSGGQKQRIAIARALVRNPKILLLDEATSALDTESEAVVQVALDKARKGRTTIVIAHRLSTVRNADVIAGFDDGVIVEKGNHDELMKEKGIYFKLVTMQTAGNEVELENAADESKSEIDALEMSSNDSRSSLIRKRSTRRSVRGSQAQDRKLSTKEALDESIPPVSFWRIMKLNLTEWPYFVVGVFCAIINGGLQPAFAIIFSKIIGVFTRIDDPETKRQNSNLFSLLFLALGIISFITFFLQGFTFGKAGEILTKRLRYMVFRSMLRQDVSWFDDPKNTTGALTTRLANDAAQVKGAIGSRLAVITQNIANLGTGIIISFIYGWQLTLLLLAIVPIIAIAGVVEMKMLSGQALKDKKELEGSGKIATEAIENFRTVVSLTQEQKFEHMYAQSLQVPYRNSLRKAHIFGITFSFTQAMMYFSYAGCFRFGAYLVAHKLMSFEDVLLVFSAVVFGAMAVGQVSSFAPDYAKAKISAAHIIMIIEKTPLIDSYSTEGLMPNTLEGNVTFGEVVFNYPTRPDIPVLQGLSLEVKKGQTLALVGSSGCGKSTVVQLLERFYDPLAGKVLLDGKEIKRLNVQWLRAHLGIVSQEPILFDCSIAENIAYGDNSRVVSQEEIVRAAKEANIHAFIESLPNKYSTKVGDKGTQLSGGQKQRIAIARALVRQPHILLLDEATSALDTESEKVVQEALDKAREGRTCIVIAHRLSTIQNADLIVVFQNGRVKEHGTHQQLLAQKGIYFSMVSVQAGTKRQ

Row | uptake of labeled GABA as concentration of unlabeled GABA increased (hGAT2; HEK-TREx-GAT2 cells induced to express GAT2, FIG. 2) | IC50 (hGAT2; HEK-TREx-GAT2 cells induced to express hGAT2, 3H-GABA as substrate) [µM] | Apical to basolateral transport in the presence of verapamil (PgP) | Basolateral to apical transport in the presence of verapamil (PgP) | SMILES
1 | decreased | 13 | – | – | NCCCC(=O)O [GABA, gamma-aminobutyric acid]
2 | – | – | strongly increased | strongly decreased | CC[C@]1(O)C[C@@H]2CN(CCc3c([nH]c4ccccc34)[C@@](C(=O)OC)(c3cc4c(cc3OC)N(C)[C@H]3[C@@](O)(C(=O)OC)[C@H](OC(C)=O)[C@]5(CC)C=CCN6CC[C@]43[C@@H]65)C2)C1 [^3H-vinblastine, vinblastine]

From patent US7700300B2, “Screening of compounds for GAT2 transporter activity” (XenoPort, Inc., priority 2005, dated 2010)
